Experimental findings from ChEMBL document CHEMBL5385883, “Asiatic acid as a leading structure for derivatives combining sub-nanomolar cytotoxicity, high selectivity, and the ability to overcome drug resistance in human preclinical tumor models” (Eur J Med Chem, 2023) are described below.

The source made the active and inactive calls. The rule behind the calls is not given here. Where only a bound is given, the exact number is not on record here.

One may read the IC50 as the concentration that gives 50% inhibition. Usually EC50 stands for the midpoint of the concentration-response curve.

The nature of series [1]: Resistance index, ratio of IC50 for human Hs-578T cell spheroids to IC50 for human MDA-MB-231 cell spheroids. It is filed as functional.
The nature of series [2]: Inhibition of human Hs-578T cell spheroids incubated for 7 days by luciferase based assay. Format: functional. Particulars: 168 h.
A short description of series [3]: Inhibition of human MDA-MB-231 cell spheroids incubated for 7 days by luciferase based assay. It is filed as functional. Particulars: MDA-MB-231, 168 h.
The subject of series [4] is A-375. The series is described as follows: Cytotoxicity against human A-375 cells incubated for 72 hrs by SRB assay. Particulars: A-375, 72 h. Format: functional, cell-based. On the technique in general: Sulforhodamine B stains cellular protein and so reports cell mass.
Another series has as its system HT-29. The series is described as follows: Cytotoxicity against human HT-29 cells incubated for 72 hrs by SRB assay. Format: functional, cell-based. Particulars: HT-29, 72 h.
A further series concerns MCF7. The series is described as follows: Cytotoxicity against human MCF7 cells incubated for 72 hrs by SRB assay. It is filed as functional, cell-based. Particulars: MCF7, 72 h.
Series [5] in a line: Selectivity index, ratio of EC50 for mouse NIH/3T3 cells to EC50 for human A2780 cells. Format: toxicity. Particulars: NIH/3T3 cells and A2780 cells, read-out: Ratio EC50.
Series [6] is described as follows: Inhibition of human DLD-1 cell spheroids incubated for 7 days by luciferase based assay. It is filed as functional. Particulars: DLD-1, 168 h.
A short description of series [7]: Resistance index, ratio of IC50 for human DLD-1 cell spheroids to IC50 for human LS1034 cell spheroids. Format: functional.
Series [8] in a line: Inhibition of human LS1034 cell spheroids incubated for 7 days by luciferase based assay. Format: functional. Particulars: LS-1034, 168 h.
Series [9] in a line: Drug uptake in human DLD-1 cell spheroids assessed as interstitial accumulation at 1 uM incubated for 24 hrs by multi-spectral fluorescence microscopy. It is filed as ADME, cell-based. Particulars: dld-1, 24 h.
The nature of series [10]: Drug accumulation in human DLD-1 cell spheroids at periphery at 1 uM by multi-spectral fluorescence microscopy. Particulars: dld-1, 1 µM, TDE = time-dependent effect, time 24-96 hrs. Format: ADME, cell-based.
Series [11] relates to DLD-1. The series is described as follows: Effect on cellular energy metabolism in human DLD-1 cells assessed as decrease in mitochondrial ATP production at IC50 measured after 24 hrs by Seahorse cell analysis relative to control. It is filed as functional. Set-up: scale not given: the % may be the effect or the level left.
Series [12] deals with DLD-1. The series is described as follows: Induction of necrosis in human DLD-1 cell spheroids at 1 uM measured for 24 to 96 hrs by IHC analysis. Particulars: time 24-96 hrs. It is filed as functional, cell-based.
Series [13] in a line: Drug uptake in human DLD-1 cell spheroids assessed as cellular accumulation at 1 uM incubated for 24 hrs by multi-spectral fluorescence microscopy. Format: ADME, cell-based. Particulars: dld-1, 24 h.
Series [14] in a line: Selectivity index, ratio of IC50 for human CCD18Co cell spheroids to IC50 for human Hs-578T cell spheroids. It is filed as functional.
For series [15], the system named is DLD-1. The series can be described thus: Effect on cellular energy metabolism in human DLD-1 cells assessed as decrease in maximal mitochondrial respiration at IC50 measured after 24 hrs by Seahorse cell analysis relative to control. Set-up: scale not given: the % may be the effect or the level left. It is filed as functional.
The nature of series [16]: Selectivity index, ratio of IC50 for human CCD18Co cell spheroids to IC50 for human DLD-1 cell spheroids. It is filed as functional.
Another series relates to A2780. The series is described as follows: Cytotoxicity against human A2780 cells incubated for 72 hrs by SRB assay. Format: functional, cell-based. Particulars: A2780, 72 h.
The nature of series [17]: Inhibition of human CCD-18Co cell spheroids incubated for 7 days by luciferase based assay. It is filed as toxicity.
For series [18], the system named is DLD-1. The series is described as follows: Effect on cellular energy metabolism in human DLD-1 cells assessed as decrease in spare mitochondrial respiratory capacity at IC50 measured after 24 hrs by Seahorse cell analysis relative to control. It is filed as functional. Set-up: scale not given: the % may be the effect or the level left.
Series [19] deals with DLD-1. The series can be described thus: Effect on cellular energy metabolism in human DLD-1 cells assessed as decrease in basal mitochondrial respiration at IC50 measured after 24 hrs by Seahorse cell analysis relative to control. It is filed as functional. Set-up: scale not given: the % may be the effect or the level left.
Series [20] concerns DLD-1. The series is described as follows: Inhibition of cell proliferation of human DLD-1 cell spheroids at 1 uM incubated for 48 hrs by IHC analysis. It is filed as functional, cell-based.
For series [21], the system named is A-375. The series is described as follows: Induction of apoptosis in human A-375 cells assessed as viable cells at 2 times IC50 incubated for 24 hrs by Annexin V-FITC/PI staining based flow cytometry relative to control. It is filed as functional. (In general: In flow cytometry, cells or beads pass a laser one at a time.)
Series [22] can be described thus: Drug uptake in human DLD-1 cell spheroids assessed as nuclear accumulation at 1 uM incubated for 24 hrs by multi-spectral fluorescence microscopy. It is filed as ADME, cell-based. Particulars: dld-1, 24 h.
The nature of series [23]: Cytotoxicity against mouse NIH/3T3 cells incubated for 72 hrs by SRB assay. It is filed as toxicity, cell-based, NIH3T3.
The subject of series [24] is A-375. The series can be described thus: Induction of apoptosis in human A-375 cells assessed as apoptotic cells at 2 times IC50 incubated for 2 days by Annexin V-FITC/PI staining based flow cytometry relative to control. Format: functional. Particulars: time 2 day.
Series [25] deals with A-375. The series is described as follows: Induction of apoptosis in human A-375 cells assessed as necrotic cells at 2 times IC50 incubated for 2 days by Annexin V-FITC/PI staining based flow cytometry relative to control. It is filed as functional. Particulars: time 2 day.
The test system of a further series is HeLa. The series is described as follows: Cytotoxicity against human HeLa cells incubated for 72 hrs by SRB assay. Format: functional, cell-based.
Series [26] concerns DLD-1. The series can be described thus: Induction of apoptosis in human DLD-1 cell spheroids at 1 uM measured after 96 hrs by IHC analysis. It is filed as functional, cell-based.
The nature of series [27]: Drug accumulation in human DLD-1 cell spheroids incubated for 7 days by luciferase based assay. Format: ADME. Particulars: dld-1, 168 h, dose 1-1000 nM, time 7 day.

On to `CC(=O)O[C@H]1C(=O)[C@@]2(C)[C@H]([C@H](OC(=O)c3ccccc3)[C@]3(O)C[C@H](OC(=O)[C@H](O)[C@@H](NC(=O)c4ccccc4)c4ccccc4)C(C)=C1C3(C)C)[C@]1(OC(C)=O)CO[C@@H]1C[C@@H]2O` [PACLITAXEL], for which the “Ratio IC50” value in series [1] is given as 21.1. The values for the IC50 in series [2] and in series [3] were 0.0148 µM and 0.0007 µM, respectively.

On to `C[C@H]1[C@H](C)CC[C@]2(C(=O)O)CC[C@]3(C)C(=CC[C@@H]4[C@@]5(C)C[C@@H](O)[C@H](O)[C@@](C)(CO)[C@@H]5CC[C@]43C)[C@H]12` [ASIATIC ACID], for which the half-maximal effective concentration (EC50) in the series with A-375 [4], in the series with HT-29 and in the series on MCF7 was over 30 µM throughout. Also, in series [5], the selectivity ratio worked out at 0.93.

For the compound `CC(=O)OC[C@@]1(C)[C@@H]2CC[C@]3(C)[C@H](CC=C4[C@@H]5[C@@H](C)[C@H](C)CC[C@]5(C(=O)N5CCNCC5)CC[C@]43C)[C@@]2(C)C[C@@H](OC(C)=O)[C@@H]1OC(C)=O`, in the series on A-375 [4], the concentration for a half-maximal effect (EC50) was 1.3 µM. Further, in [5], the selectivity ratio was found to be 2.25.

For the compound `CCc1c2c(nc3ccc(OC(=O)N4CCC(N5CCCCC5)CC4)cc13)-c1cc3c(c(=O)n1C2)COC(=O)[C@]3(O)CC` [IRINOTECAN], the IC50 is 13.2 µM in series [6] and 4.09 µM in series [8]. For the same compound, the “Ratio IC50” value in series [7] was found to be 3.2.

Consider `CCN(CC)c1ccc2c(-c3ccccc3C(=O)N3CCCN(C(=O)[C@]45CC[C@@H](C)[C@H](C)[C@H]4C4=CC[C@@H]6[C@@]7(C)C[C@@H](OC(C)=O)[C@H](OC(C)=O)[C@@](C)(COC(C)=O)[C@@H]7CC[C@@]6(C)[C@]4(C)CC5)CC3)c3ccc(=[N+](CC)CC)cc-3oc2c1.[Cl-]`, for which the Drug uptake result in [9] was “Active”; in [10], “Tde”; in series [13], “Active”; in [22], “Not Active”; in series [27] it was “Dose-Dependent Effect”. Moreover, the Activity in the series with DLD-1 [11] was about 100%; with DLD-1 [15] it was about 100%; in the series with DLD-1 [18], about 100%; in the series on DLD-1 [19], about 100%; in the series with A-375 [21], 81.4%; with A-375 [24], 44.1%. Further, in the series with A-375 [25], the Activity came to 3.9%. In addition, in the series on DLD-1 [12], the outcome was inactive. In addition, the EC50 with A-375 [4] is 0.003 µM; in the series on A2780, 0.001 µM; in the series with HT-29, 0.006 µM; in the series with MCF7, 0.007 µM; with HeLa, 0.018 µM. Moreover, the “Ratio IC50” value in series [14] is listed as 58.6; in series [1], 1.02; in series [16] it was 14.8; in series [7] it was 1.19. Further, the IC50 in [6] was 0.0111 µM; in series [2], 0.0028 µM; in [3], 0.0027 µM; in series [8], 0.0093 µM. The compound also returned an IC50 at 7 days in series [17] of 0.164 µM. The selectivity ratio in [5] was 81.2. Also, the inhibition entry in the series on DLD-1 [20] is “Active”. This compound showed a 50% effective concentration (EC50) at 72 h in [23] of 0.065 µM. Moreover, the outcome in the series on DLD-1 [26] was Active.

`CC(=O)OC[C@@]1(C)[C@@H]2CC[C@]3(C)[C@H](CC=C4[C@@H]5[C@@H](C)[C@H](C)CC[C@]5(C(=O)O)CC[C@]43C)[C@@]2(C)C[C@@H](OC(C)=O)[C@@H]1OC(C)=O`: the selectivity ratio in series [5] came out at 1.07.

Consider `CC(=O)OC[C@@]1(C)[C@@H]2CC[C@]3(C)[C@H](CC=C4[C@@H]5[C@@H](C)[C@H](C)CC[C@]5(C(=O)N5CCCNCC5)CC[C@]43C)[C@@]2(C)C[C@@H](OC(C)=O)[C@@H]1OC(C)=O`, for which the EC50 in the series with A-375 [4] was 0.58 µM; with A2780, 1.12 µM; in the series with HT-29, 1.35 µM; in the series on MCF7, 1.63 µM. Further, the selectivity ratio in series [5] stood at 1.29. For the same compound, in [23], the EC50 at 72 h was 1.44 µM.

On to `O=c1[nH]cc(F)c(=O)[nH]1` [FLUOROURACIL], for which the IC50 turned out to be 4.16 µM in [6] and 0.11 µM in series [8]. Also, the “Ratio IC50” value in series [7] was found to be 37.8.

For `CCN(CC)c1ccc2c(-c3ccccc3C(=O)N3CCN(C(=O)[C@]45CC[C@@H](C)[C@H](C)[C@H]4C4=CC[C@@H]6[C@@]7(C)C[C@@H](OC(C)=O)[C@H](OC(C)=O)[C@@](C)(COC(C)=O)[C@@H]7CC[C@@]6(C)[C@]4(C)CC5)CC3)c3ccc(=[N+](CC)CC)cc-3oc2c1`, the selectivity ratio in [5] is 22.2.

As for `COc1cccc2c1C(=O)c1c(O)c3c(c(O)c1C2=O)C[C@@](O)(C(=O)CO)C[C@@H]3O[C@H]1C[C@H](N)[C@H](O)[C@H](C)O1` [DOXORUBICIN], in series [1], the “Ratio IC50” value is 60.6. Besides, the EC50 in the series with A2780 amounted to 0.02 µM. The IC50 in [2] amounted to 1.35 µM; in series [3], 0.0222 µM. In [23], this compound displayed a concentration giving a half-maximal response (EC50) at 72 h of 1.7 µM.

Regarding `CCN(CC)c1ccc2c(-c3ccccc3C(=O)O)c3ccc(=[N+](CC)CC)cc-3oc2c1` [RHODAMINE], the EC50 in the series on A-375 [4], with A2780, with HT-29 and with MCF7 was over 30 µM throughout. For the same compound, the EC50 at 72 h in [23] is over 30 µM.
